Measured values as given in patent US20100317630A1, “NOVEL HETEROCYCLIC COMPOUNDS AS MGLU5 ANTAGONISTS” (RECORDATI IRELAND LIMITED, priority 2009, published 2010).

How the values were obtained:
[1] = target: T1, mGlu5 receptor (Rattus norvegicus, UniProt P31424); test: Radioligand binding assay at metabotropic glutamate receptor 5 in rat brain ([3H]MPEP, forebrain membranes); details: 4 nM [3H]MPEP, read-out: affinity (Ki) for mGlu5 receptor
T1 construct: from tissue; host or cells: forebrain (cortex, striatum and hippocampus) of male Sprague Dawley rats
Method: Radioligand Binding Assay at metabotropic glutamate receptor 5 in rat brain.
a) Membrane preparation: male Sprague Dawley rats (200-300 g, Charles River, Italy) were killed by cervical dislocation and the forebrain (cortex, striatum and hippocampus) was homogenized (2×20 sec) in 50 vols of cold 50 mM Tris buffer pH 7.4, using a Politron homogenizer (Kinematica). Homogenates were centrifuged at 48000×g for 15 min, resuspended in 50 vols of the same buffer, incubated at 37° C. for 15 min and centrifuged and resuspended two more times. The final pellets were frozen and stored at −80° C. until use.
b) Binding assay: pellets from rat forebrain were resuspended in 100 vols of 20 mM HEPES, 2 mM MgCl2, 2 mM CaCl2, pH 7.4. The membranes were incubated in a final volume of 1 ml for 60 min at 25° C. with 4 nM [^3H]MPEP in the absence or presence of competing drugs. Non-specific binding was determined in the presence of 10 μM MPEP (Spooren W. et al., Trends Pharmacol Sci. 22, 331-337, 2001). The incubation was stopped by the addition of cold Tris buffer pH 7.4 and rapid filtration through 0.5% polyethyleneimine pretreated Filtermat 1204-401 (Wallac) filters. The filters were then washed with cold buffer and the radioactivity retained on the filters was counted by liquid scintillation spectrometry. […]

[2] = test system: conscious rats; test: Effect on cystometry in conscious rats (bladder volume capacity); format: in vivo, rat
Method: Male Sprague-Dawley rats [Crl: CD® (SD) IGS BR] of 300-400 g b.w. supplied by Charles River Italia were used. The animals were housed with free access to food and water and maintained on a forced 12-hour-light/12-hour-dark cycle at 22-24° C. of temperature, except during the experiment. To quantify urodynamic parameters in conscious rats, cystometrographic studies were performed according to the procedure previously reported (Guarneri et al., Pharmacol. Res. 24: 175, 1991).
Briefly, the rats were anaesthetised by intraperitoneal administration of 3 ml/kg of Equithensin solution (pentobarbital 30 mg/kg and chloral hydrate 125 mg/kg) and placed in a supine position. An approximately 10 mm long midline incision was made in the shaved and cleaned abdominal wall. The urinary bladder was gently freed from adhering tissues, emptied and then cannulated via an incision in the bladder body, using a polyethylene cannula (0.58 mm internal diameter, 0.96 mm external diameter) which was permanently sutured with silk thread. […]
On the day of the experiment, the rats were placed in modified Bollman cages, i.e., restraining cages that were large enough to permit the rats to adopt a normal crouched posture, but narrow enough to prevent turning around. […] The intraluminal-pressure signal during infusion of saline into the bladder (cystometrogram) was continuously recorded on a polygraph (Rectigraph-8K San-ei with BM614/2 amplifier from Biomedica Mangoni) or stored on PC by data acquisition system (PowerLab, Chart 4 software, AD Instruments). From the cystometrogram, bladder volume capacity (BVC) was evaluated. […] Basal BVC value was evaluated as the mean of the values observed in the cystometrograms recorded in an initial period of 30-60 minutes. […] The bladder infusion restarted and changes in BVC were evaluated from the mean values obtained in the cystometrograms observed during 1, 2, and 3 hours after treatment. […]
Each experimental group was composed of 4-11 animals. All data were expressed as mean±standard error. […]

T1 sequence (P31424 21-1203): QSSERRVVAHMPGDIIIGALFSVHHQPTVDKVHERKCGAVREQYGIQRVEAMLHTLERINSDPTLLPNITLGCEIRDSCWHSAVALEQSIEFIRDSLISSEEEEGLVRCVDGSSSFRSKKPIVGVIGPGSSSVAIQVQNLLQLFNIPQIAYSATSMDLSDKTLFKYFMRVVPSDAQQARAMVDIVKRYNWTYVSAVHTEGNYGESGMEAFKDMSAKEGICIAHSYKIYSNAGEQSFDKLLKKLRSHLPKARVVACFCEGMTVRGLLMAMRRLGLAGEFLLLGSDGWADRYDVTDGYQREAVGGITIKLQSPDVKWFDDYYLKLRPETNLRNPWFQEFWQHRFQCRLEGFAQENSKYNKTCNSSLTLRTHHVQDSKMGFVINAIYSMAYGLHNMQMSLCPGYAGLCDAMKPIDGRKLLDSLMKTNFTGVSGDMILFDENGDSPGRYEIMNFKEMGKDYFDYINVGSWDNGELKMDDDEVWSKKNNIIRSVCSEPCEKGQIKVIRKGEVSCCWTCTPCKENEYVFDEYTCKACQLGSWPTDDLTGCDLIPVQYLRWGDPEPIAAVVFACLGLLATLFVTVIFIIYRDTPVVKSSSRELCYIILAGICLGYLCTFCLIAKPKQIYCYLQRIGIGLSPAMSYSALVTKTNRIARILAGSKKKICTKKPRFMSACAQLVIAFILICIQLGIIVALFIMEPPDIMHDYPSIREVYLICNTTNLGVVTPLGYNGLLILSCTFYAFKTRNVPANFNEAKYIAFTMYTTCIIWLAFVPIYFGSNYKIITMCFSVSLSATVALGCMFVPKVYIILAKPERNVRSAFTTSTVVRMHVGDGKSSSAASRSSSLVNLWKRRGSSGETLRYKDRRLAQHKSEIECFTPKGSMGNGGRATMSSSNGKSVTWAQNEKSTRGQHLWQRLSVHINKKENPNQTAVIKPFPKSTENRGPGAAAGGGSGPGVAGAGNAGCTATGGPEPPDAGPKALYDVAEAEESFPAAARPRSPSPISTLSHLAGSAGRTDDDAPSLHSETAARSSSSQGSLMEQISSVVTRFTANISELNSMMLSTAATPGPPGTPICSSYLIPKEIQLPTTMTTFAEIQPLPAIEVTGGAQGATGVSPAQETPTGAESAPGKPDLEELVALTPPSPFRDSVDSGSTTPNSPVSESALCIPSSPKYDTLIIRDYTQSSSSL

Cc1ccc([N+](=O)[O-])c(N2CCC(=C/C=C/c3ccccc3)CC2)n1 [Example 1, 6-Methyl-3-nitro-2-[4-[(E)-3-phenylprop-2-enylidene]-1-piperidyl]pyridine] was tested, and the Ki [1] was 1.42 nM.
For Cc1nc(C#Cc2cccnc2)cs1 [MTEP], the “increase of bladder volume capacity” value ([2]; 1 mg/kg orally) was “slight increase”, the “increase of bladder volume capacity” value ([2]; 3 mg/kg orally, statistically significant from the vehicle group after 3 hours from treatment) was “sustained increase” and the “MED (Minimal Effective Dose that induces statistically significant increase of bladder volume capacity)” value ([2]; oral) was 3.
